{"source": "patent US20240261272A1", "about": "“LPA1 ANTAGONISTS FOR TREATING INTERSTITIAL LUNG DISEASE” (Bristol-Myers Squibb Company, priority 2022, published 2024)", "key": {"[1]": {"test": "Phase 1 Part A single ascending dose (SAD) study in healthy participants: safety, blood pressure", "type": "in vivo, human", "set-up": "Mean DBP: unit not given here", "protocol": "The study was performed in 3 parts in 112 healthy male and female participants, including 24 Japanese participants. Female participants were to be not of childbearing potential. The present study was designed to evaluate the safety and tolerability, PK, and exploratory PD of an oral suspension of Compound A. Parts A and B (Cohort B1 only) enrolled healthy participants and was conducted at a site in The Netherlands and Part B (Cohort B2 to B5) enrolled healthy non-Japanese participants and was conducted at a site in the United Kingdom (UK). Part C enrolled healthy Japanese participants and was conducted at the same site in the UK.\nPart A was an SAD study in a planned number of 6 sequential dose escalation cohorts (3, 10, 30, 100, 150, or 250 mg) of 8 healthy participants (6 active+2 placebo) each, under fasted conditions. Eligible participants in Part A (excluding those in Cohort A7 [food effect (FE)/pH cohort]) received a single administration of study drug (Compound A or placebo) under fasted conditions. In Cohort A1 to Cohort A6, sentinel dosing was employed (1 active+1 placebo, followed after 48 hours by the remaining participants of the cohort [5 active+1 placebo]). […] In addition to the 6 ascending dose cohorts, a cohort of 6 healthy participants (Cohort A7; 6 active, 100 mg Compound A) was included to assess the effect of food and pH on the bioavailability of Compound A in a 3-period, open-label, fixed-sequence, crossover design (FE/pH cohort).\nPhysical examinations, vital sign measurements (including orthostasis testing in Cohort A6, Cohort B3 to B5, and C1 to C3 at selected time points), 12-lead electrocardiogram (ECG), and clinical laboratory evaluations were performed at selected times throughout the study. In addition, Holter monitoring was performed for the first 24 hours post dose on Day 1 in Part A (not in FE/pH cohort), and also for the first 24 hours post dose on Day 1 and Day 14 in Parts B and C. Participants were closely monitored for adverse events (AEs). Blood samples were collected for up to 14 days (follow-up visit) after (last) study drug administration for PK analysis. In addition, blood and urine were collected for exploratory biomarker assessments and for biobanking of samples for potential analyses. Urine was collected for potential PK analysis for up to 96 hours after a single dose of Compound A or placebo was administered in the SAD part, and for up to 24 hours after the first (morning) dose of study drug on Day 1 and for up to 24 hours after the last (morning) dose of study drug on Day 14 in the MAD parts."}, "[2]": {"test": "Phase 2 study, PPF cohort: safety, adverse events, prespecified blood pressure reduction criteria, dose reductions", "type": "in vivo, human", "settings": "for Asymptomatic blood pressure reduction, patients (%) / Asymptomatic blood pressure reduction, patients, no. / Symptomatic blood pressure reduction, patients (%) / Symptomatic blood pressure reduction, patients, no.: prespecified criteria", "protocol": "A total of 123 participants with PPF were randomized. Participants (age ≥21 years) were randomized (1:1:1) to receive 30 mg or 60 mg Compound A or PBO twice daily for 26 weeks. […] Immunosuppressive medications (mycophenolate mofetil, mycophenolic acid, azathioprine and/or tacrolimus) were permitted only if dosing is stable for ≥6 months prior to screening. If receiving antifibrotic agents pirfenidone or nintedanib, patients had to receive a stable dosage for ≥3 months prior to screening and during the screening period; if not receiving pirfenidone or nintedanib, patients had to be naive to both drugs or not have received either 4 weeks prior to Day 1. A total of 47 (38.2%) subjects were receiving antifibrotic treatment (with or without immunosuppression therapy). Of those subjects, 34 were being treated with nintedanib and 13 with pirfenidone. Participants were stratified by usual interstitial pneumonia (UIP) pattern (presence versus absence) and background therapy (antifibrotics +/−ILD-targeted immunosuppression versus ILD-targeted immunosuppression alone versus none).UIP pattern was present in 52% of subjects and unclassifiable ILD was he most common disease categorization.\nPatient is experiencing any of the following, confirmed by retest within 15 minutes: • Seated systolic blood pressure <85 mmHg • Seated diastolic blood pressure <55 mmHg • Orthostatic hypotension\nPatient is experiencing symptoms that, in the investigator's opinion, could be associated with a reduction in blood pressure and is also experiencing at least one of the following, confirmed by retest within 15 minutes: • Seated systolic blood pressure <100 mmHg or seated diastolic blood pressure <60 mmHg • Decrease of seated systolic blood pressure of ≥20 mmHg from the previous visit or decrease of seated diastolic blood pressure of ≥10 mmHg from the previous visit • Orthostatic hypotension • Orthostatic tachycardia"}}}
{"smiles": "CCCN(C)C(=O)OCc1c(-c2ccc(O[C@H]3CCC[C@H](C(=O)O)C3)c(C)n2)nnn1C", "note": "[Compound A, (1S,3S)-3-((2-methyl-6-(1-methyl-5-(((methyl(propyl)carbamoyl)-oxy)methyl)-1H-1,2,3-triazol-4-yl)pyridin-3-yl)oxy)cyclohexane-1-carboxylic acid]", "values": [{"measurement": "Mean DBP", "setting": "[1]; 100 mg Fasted + Famotidine, D 1 2 h", "value": 67.2}, {"measurement": "Mean DBP", "setting": "[1]; 100 mg Fasted + Famotidine, D 1 4 h", "value": 65.3}, {"measurement": "Mean DBP", "setting": "[1]; 100 mg Fasted + Famotidine, D 1 8 h", "value": 63.2}, {"measurement": "Mean DBP", "setting": "[1]; 100 mg Fasted + Famotidine, D 2 24 h", "value": 71.7}, {"measurement": "Mean DBP", "setting": "[1]; 100 mg Fasted, D 1 2 h", "value": 67.2}, {"measurement": "Mean DBP", "setting": "[1]; 100 mg Fasted, D 1 4 h", "value": 64.2}, {"measurement": "Mean DBP", "setting": "[1]; 100 mg Fasted, D 1 8 h", "value": 63.0}, {"measurement": "Mean DBP", "setting": "[1]; 100 mg Fasted, D 2 24 h", "value": 69.3}, {"measurement": "Mean DBP", "setting": "[1]; 100 mg Fed, D 1 2 h", "value": 57.2}, {"measurement": "Mean DBP", "setting": "[1]; 100 mg Fed, D 1 4 h", "value": 58.2}, {"measurement": "Mean DBP", "setting": "[1]; 100 mg Fed, D 1 8 h", "value": 58.8}, {"measurement": "Mean DBP", "setting": "[1]; 100 mg Fed, D 2 24 h", "value": 69.3}, {"measurement": "Mean DBP", "setting": "[1]; SAD 3 mg, D 1 2 h", "value": 68.3}, {"measurement": "Mean DBP", "setting": "[1]; SAD 3 mg, D 1 4 h", "value": 69.5}, {"measurement": "Mean DBP", "setting": "[1]; SAD 3 mg, D 1 8 h", "value": 68.0}, {"measurement": "Mean DBP", "setting": "[1]; SAD 3 mg, D 2 24 h", "value": 68.7}, {"measurement": "Mean DBP", "setting": "[1]; SAD 10 mg, D 1 2 h", "value": 67.7}, {"measurement": "Mean DBP", "setting": "[1]; SAD 10 mg, D 1 4 h", "value": 68.7}, {"measurement": "Mean DBP", "setting": "[1]; SAD 10 mg, D 1 8 h", "value": 63.0}, {"measurement": "Mean DBP", "setting": "[1]; SAD 10 mg, D 2 24 h", "value": 71.7}, {"measurement": "Mean DBP", "setting": "[1]; SAD 30 mg, D 1 2 h", "value": 66.2}, {"measurement": "Mean DBP", "setting": "[1]; SAD 30 mg, D 1 4 h", "value": 65.2}, {"measurement": "Mean DBP", "setting": "[1]; SAD 30 mg, D 1 8 h", "value": 65.2}, {"measurement": "Mean DBP", "setting": "[1]; SAD 30 mg, D 2 24 h", "value": 71.0}, {"measurement": "Mean DBP", "setting": "[1]; SAD 100 mg, D 1 2 h", "value": 59.0}, {"measurement": "Mean DBP", "setting": "[1]; SAD 100 mg, D 1 4 h", "value": 58.7}, {"measurement": "Mean DBP", "setting": "[1]; SAD 100 mg, D 1 8 h", "value": 56.3}, {"measurement": "Mean DBP", "setting": "[1]; SAD 100 mg, D 2 24 h", "value": 66.0}, {"measurement": "Mean DBP", "setting": "[1]; SAD 150 mg, D 1 2 h", "value": 58.2}, {"measurement": "Mean DBP", "setting": "[1]; SAD 150 mg, D 1 4 h", "value": 56.0}, {"measurement": "Mean DBP", "setting": "[1]; SAD 150 mg, D 1 8 h", "value": 57.8}, {"measurement": "Mean DBP", "setting": "[1]; SAD 150 mg, D 2 24 h", "value": 66.2}, {"measurement": "dose-limiting events (in words)", "setting": "[1]; SAD Cohort A6, 250 mg, sentinel participants", "value": "dose-limiting events observed in a sentinel participant"}, {"measurement": "effect on SBP and DBP (in words)", "setting": "[1]; SAD cohorts", "value": "decreased SBP and DBP dose dependently, reversibly, and mostly asymptomatically"}, {"measurement": "safety and tolerability (in words)", "setting": "[1]; single and multiple dose oral administration to healthy participants", "value": "generally safe and well tolerated"}, {"measurement": "day-1 blood pressure reduction (in words)", "setting": "[2]", "value": "dose dependent day-1 blood pressure reduction"}, {"measurement": "hepatobiliary toxicity (in words)", "setting": "[2]", "value": "No hepatobiliary toxicity"}, {"measurement": "tolerability and safety findings (in words)", "setting": "[2]", "value": "well-tolerated, demonstrated no unexpected safety findings"}, {"measurement": "Dose dependent low BP thresholds (\"events\")", "setting": "[2]; 30 mg", "value": 30, "unit": "%"}, {"measurement": "≥1 TEAE related to study drug, no.", "setting": "[2]; 30 mg (n = 40)", "value": 7}, {"measurement": "≥1 TEAE, no.", "setting": "[2]; 30 mg (n = 40)", "value": 33}, {"measurement": "≥1 TESAE, no.", "setting": "[2]; 30 mg (n = 40)", "value": 4}, {"measurement": "≥1 TEAE related to study drug, no.", "setting": "[2]; 60 mg (n = 42)", "value": 11}, {"measurement": "≥1 TEAE, no.", "setting": "[2]; 60 mg (n = 42)", "value": 28}, {"measurement": "≥1 TESAE, no.", "setting": "[2]; 60 mg (n = 42)", "value": 5}, {"measurement": "Orthostatic hypotension (asymptomatic and symptomatic), comparison of groups (in words)", "setting": "[2]; 60 mg group", "value": "higher in the 60 mg group than for other groups"}, {"measurement": "Dose reductions, patients (%)", "setting": "[2]; 30-mg Compound A (n = 40)", "value": "(15.0) %"}, {"measurement": "Dose reductions, patients, no.", "setting": "[2]; 30-mg Compound A (n = 40)", "value": 6}, {"measurement": "Orthostatic hypotension (under asymptomatic blood pressure reduction), patients (%)", "setting": "[2]; 30-mg Compound A (n = 40)", "value": "(15.0) %"}, {"measurement": "Orthostatic hypotension (under asymptomatic blood pressure reduction), patients, no.", "setting": "[2]; 30-mg Compound A (n = 40)", "value": 6}, {"measurement": "Orthostatic hypotension (under symptomatic blood pressure reduction), patients (%)", "setting": "[2]; 30-mg Compound A (n = 40)", "value": "(2.5) %"}, {"measurement": "Orthostatic hypotension (under symptomatic blood pressure reduction), patients, no.", "setting": "[2]; 30-mg Compound A (n = 40)", "value": 1}, {"measurement": "Asymptomatic blood pressure reduction, patients (%)", "setting": "[2]; 30-mg Compound A (n = 40)", "value": "(22.5) %"}, {"measurement": "Asymptomatic blood pressure reduction, patients, no.", "setting": "[2]; 30-mg Compound A (n = 40)", "value": 9}, {"measurement": "Symptomatic blood pressure reduction, patients (%)", "setting": "[2]; 30-mg Compound A (n = 40)", "value": "(5.0) %"}, {"measurement": "Symptomatic blood pressure reduction, patients, no.", "setting": "[2]; 30-mg Compound A (n = 40)", "value": 2}, {"measurement": "Dose reductions, patients (%)", "setting": "[2]; 60-mg Compound A (n = 42)", "value": "(11.9) %"}, {"measurement": "Dose reductions, patients, no.", "setting": "[2]; 60-mg Compound A (n = 42)", "value": 5}, {"measurement": "Orthostatic hypotension (under asymptomatic blood pressure reduction), patients (%)", "setting": "[2]; 60-mg Compound A (n = 42)", "value": "(26.2) %"}, {"measurement": "Orthostatic hypotension (under asymptomatic blood pressure reduction), patients, no.", "setting": "[2]; 60-mg Compound A (n = 42)", "value": 11}, {"measurement": "Orthostatic hypotension (under symptomatic blood pressure reduction), patients (%)", "setting": "[2]; 60-mg Compound A (n = 42)", "value": "(9.5) %"}, {"measurement": "Orthostatic hypotension (under symptomatic blood pressure reduction), patients, no.", "setting": "[2]; 60-mg Compound A (n = 42)", "value": 4}, {"measurement": "Asymptomatic blood pressure reduction, patients (%)", "setting": "[2]; 60-mg Compound A (n = 42)", "value": "(31.0) %"}, {"measurement": "Asymptomatic blood pressure reduction, patients, no.", "setting": "[2]; 60-mg Compound A (n = 42)", "value": 13}, {"measurement": "Symptomatic blood pressure reduction, patients (%)", "setting": "[2]; 60-mg Compound A (n = 42)", "value": "(14.3) %"}, {"measurement": "Symptomatic blood pressure reduction, patients, no.", "setting": "[2]; 60-mg Compound A (n = 42)", "value": 6}, {"measurement": "marked laboratory abnormalities (in words)", "setting": "[2]; among treatment groups", "value": "No notable imbalances in marked laboratory abnormalities among treatment groups"}]}
